# According to patent publication US8906829B2, “Synergistic algicidal compositions including hydrazone derivatives and copper” (Dow AgroSciences LLC, priority 2010, dated 2014):
# Columns and labels:
# [1] = test system: Synechocystis sp. strain 6803; test: Effect of copper on activity of hydrazones: in vitro growth inhibition of Synechocystis in BG-11 Cu minus / Cu plus medium (Example 11); format: cell-based; conditions: 72 h; for inhibition of growth at 0.05 µg/mL / inhibition of growth at 0.00625 µg/mL: Synechocystis, BG-11 Cu minus medium, read-out: % Inhn. Minus Copper Observed; for % Inhn. Plus Copper Observed: BG-11 Cu plus medium
# Method: In vitro toxicity assays against the cyanobacterium (blue-green alga) Synechocystis sp. strain 6803 were conducted using BG-11 medium except that copper micronutrient, normally included as CuSO4.5H2O, was omitted. The medium, termed BG-11 Cu minus, was prepared by dissolving 1.5 g NaNO3, 40 mg K2HPO4, 6 mg citric acid, 1 mg Na2EDTA and 20 mg Na2CO3 in 1 liter of milli Q water and treating the solution with 0.5 g Chelex 100 resin (Bio-Rad Analytical grade, 50-100 mesh, sodium form, cat#142-2822) by stifling at room temperature for 1 h. 900 mL were decanted and 67.5 mg MgSO4.7H2O, 32.4 mg […], 5.4 mg ferric ammonium citrate and 0.9 mL trace metal mix A5 without copper (2.86 g H3BO3, 1.81 g MnCl2.4H2O, 222 mg ZnSO4.7H2O, 390 mg Na2MoO4.2H2O and Co(NO3)2.6H2O in 1 L Milli Q water) was added. The pH was adjusted to 7.1 and the medium was filter-sterilized. Medium containing copper (BG-11 Cu plus) was prepared by adding CuCl2.2H2O to the BG-11 Cu minus medium at 0.2 μM. Test compounds were dissolved in dimethylsulfoxide (DMSO) at 2 mg/mL then appropriate dilutions in BG-11 Cu minus and BG-11 Cu plus media were prepared in sterilized microcentrifuge tubes. 100 μL aliquots were dispensed into flat-bottomed 96-well microtiter plates. Synechocystis was maintained under 24 h of light on BG-11 agar plates at 27° C. A loopful of cells was added to 50 mL of BG-11 Cu minus growth medium and the culture was incubated with shaking at 200 rpm at 27° C. for 24 h. The culture (10 to 20 mL aliquot) was centrifuged in a bench centrifuge at 2400 rpm for 2 min. The resulting cell pellet was resuspended in 5 mL sterile milli Q water (which had been treated with Chelex 100 resin using 0.5 g resin per liter of water by stirring at room temperature for 1 h), and recentrifuged. The cells were resuspended in BG-11 Cu minus medium, and the suspension adjusted to 4×10^5 spores per mL. Microtiter plates containing compounds as described above were inoculated with 100 μL of this cell suspension and the plates incubated at 27° C. for 72 h before assessing algal growth by measuring light scattering in a NepheloStar plate reader. Growth inhibition was determined by comparing growth in the presence of test compound with growth in control wells lacking test compound. Results for growth inhibition by test compounds in BG-11 Cu plus medium (% Inhn Plus Copper Observed) were compared with predicted values (% Inhn Plus Copper Predicted) that were calculated using the formula set forth by S. R. Colby in Weeds 1967, 15, 20-22 based on-results obtained for the same compounds in BG-11 Cu minus medium (% Inhn Minus Copper Observed) and the inhibition attributed to copper chloride alone, as determined by comparing growth in copper-minus and copper-plus media without any test compound across experiments. Results illustrate that hydrazones and copper produce a synergistic algicidal effect towards Synechocystis.
# C. reinhardtii CC-1928 = test: Effect of copper on activity of hydrazones: in vitro growth inhibition of C. reinhardtii in TAP Cu minus / TAP Cu plus medium (Example 10); format: cell-based, Chlamydomonas reinhardtii; conditions: test compound 1 μg/mL, 48 h; for inhibition of growth at 1 µg/mL: Chlamydomonas reinhardtii, TAP Cu minus medium, read-out: % Inhn. Minus Copper Observed; for % Inhn. Plus Copper Observed: TAP Cu plus medium (CuCl2)
# Method: In vitro toxicity assays against C. reinhardtii CC-1928 (wild type mt+137c green in dark subclone) obtained from the Chlamydomonas Resource Center at Duke University were conducted using TAP liquid growth medium described by Gorman and Levine Proc. Natl. Acad. Sci. USA 1965, 54, 1665-1669 except that CuSO4.5H2O, normally included as a component of Hutner's trace element stock solution (Hutner et al. Proc. Am. Philos. Soc. 1950, 94, 152-170), was omitted. The TAP medium lacking Cu (TAP Cu minus) was prepared by adding 400 mg NH4Cl, 10 mL of 100× Tris-Acetate (242 g Tris-base and 100 mL glacial acetic acid in 1000 mL milli Q water), and 8.3 mL of 120.5× phosphate buffer (14.34 g K2HPO4 and 7.26 g KH2PO4 in 1000 mL milli Q water) to milli Q water to make a total volume of 1 liter. The medium was treated with 0.5 g Chelex 100 resin (Bio-Rad Analytical grade, 50-100 mesh, sodium form, cat#142-2822) by stirring at room temperature for 1 hour. 900 mL were decanted and 45.9 mg of CaCl2.2H2O, 90 mg of MgSO4.7H2O and 0.9 mL Hutner's trace elements lacking CuSO4.5H2O were added and the solution was filter-sterilized. Medium containing copper (TAP Cu plus) was prepared by adding CuCl2.2H2O to the TAP Cu minus medium at 20 μM. Test compounds were dissolved in dimethylsulfoxide (DMSO) at 2 mg/mL then dilutions in TAP Cu minus and TAP Cu plus media were prepared in sterilized microcentrifuge tubes at 2 μg/mL. 100 μL aliquots of diluted compound were dispensed into flat-bottomed 96-well microtiter plates. C. reinhardtii was maintained under 12 h of light on TAP agar plates at 18° C. A loopful of cells was added to 50 mL of TAP Cu minus medium and the culture incubated with shaking at 200 rpm at 27° C. for 24 h. The culture (10 to 20 mL aliquot) was centrifuged in a bench centrifuge at 2000 rpm for 2 min. The resulting cell pellet was resuspended in 5 mL sterile milli Q water (which had been treated with Chelex 100 resin using 0.5 g resin per liter of water by stirring at room temperature for 1 h), and recentrifuged. The cells were resuspended in TAP Cu minus medium, and the suspension adjusted to 2×10^5 spores per mL. Microtiter plates containing compounds as described above were inoculated with 100 μL of this cell suspension and the plates incubated at 27° C. for 48 h before assessing algal growth by measuring light scattering in a NepheloStar plate-reader. Growth inhibition was determined by comparing growth in the presence of test compound with growth in control wells lacking test compound. Results for growth inhibition by test compounds at 1 μg/mL in TAP Cu plus medium (% Inhn Plus Copper Observed) were compared with predicted values (% Inhn Plus Copper Predicted) that were calculated using the formula set forth by S. R. Colby in Weeds 1967, 15, 20-22 based on results obtained for the same compounds in TAP Cu minus medium (% Inhn Minus Copper Observed). […] Results illustrate that hydrazones and copper produce a synergistic algicidal effect towards C. reinhardtii.
melting point [°C],Structure (SMILES),inhibition of growth at 0.05 µg/mL ([1]; Test Concn. 0.05 μg/mL) [%],% Inhn. Plus Copper Observed ([1]; Test Concn. 0.05 μg/mL) [%],inhibition of growth at 1 µg/mL (C. reinhardtii CC-1928) [%],% Inhn. Plus Copper Observed (C. reinhardtii CC-1928) [%],inhibition of growth at 0.00625 µg/mL ([1]; Test Concn. 0.00625 μg/mL) [%],% Inhn. Plus Copper Observed ([1]; Test Concn. 0.00625 μg/mL) [%]
185 to 187,C/C(=N\NC(=O)c1ccccc1)c1ccccc1O [Compound 2],-8,97,10,95,,
,O=C(N/N=C/c1cc(Cl)ccc1O)c1ccccc1 [Compound 3],-17,96,25,62,,
,O=C(N/N=C/c1cc(Cl)cc(Cl)c1O)c1ccc(F)cc1 [Compound 4],-14,96,12,92,,
220 to 222,C/C(=N\NC(=O)c1ccccc1Br)c1cc(Cl)cc(Cl)c1O [Compound 5],-10,91,26,95,,
,O=C(N/N=C/c1cc(Cl)cc(Cl)c1O)c1cccc(Cl)c1 [Compound 8],62,92,15,92,,
,O=C(N/N=C/c1cc(Cl)cc(Cl)c1O)c1ccc(Br)cc1 [Compound 9],,,7,90,15,74
215 to 217,O=C(N/N=C/c1cc(Cl)cc(Cl)c1O)c1ccc2ccccc2c1 [Compound 10],44,95,24,93,,
,O=C(N/N=C/c1cc(Br)cc(Br)c1O)c1ccccc1 [Compound 11],50,97,31,96,,
199 to 204,C/C(=N\NC(=O)Cc1ccccc1)c1cc(Cl)cc(Cl)c1O [Compound 13],22,96,17,96,,
,Cc1ccccc1C(=O)N/N=C/c1cc(Cl)cc(Br)c1O [Compound 16],-5,94,-3,95,,
,O=C(N/N=C/c1cc(Cl)cc(Br)c1O)c1cccc(Br)c1 [Compound 17],,,32,83,59,72
,COc1cc(Br)cc(/C=N/NC(=O)c2cccc(Br)c2)c1O [Compound 19],-18,43,12,52,,
,COc1cc(Br)cc(/C=N/NC(=O)c2ccc(C)cc2)c1O [Compound 20],9,86,-6,94,,
165 to 169,O=C(N/N=C/c1cc(Cl)cc(Cl)c1O)c1cccc(C(F)(F)F)c1 [Compound 22],48,94,-14,96,,
> 300,O=C(N/N=C/c1c(O)cccc1Cl)c1ccc([N+](=O)[O-])cc1 [Compound 49],,,33,93,,
257 to 259,O=C(N/N=C/c1c(O)cccc1Cl)c1cccc(F)c1 [Compound 69],,,,,,
273 to 277,"O=C(N/N=C/c1c(O)cccc1Cl)c1ccc(Cl)cc1 [Compound 70, 4-chlorobenzoic acid [1-(2-chloro-6-hydroxyphenyl)-methylidene]-hydrazide]",,,,,,
277 to 281,O=C(N/N=C/c1cc(C(F)(F)F)ccc1O)c1ccccc1O [Compound 71],,,,,,
